Test results as given in patent US7098246B2, “Natural compounds and their derivatives for the prevention and treatment of cardiovascular, hepatic and renal diseases and for cosmetic applications” (Puleva Biotech, S.A., priority 2002, dated 2006).

Experiments:
[1] = Stability against forced oxidation at 120° C. in an oily food matrix (refined oil, Rancimat)
Description: This was done by measuring the remaining amount of each of the compounds when these were subjected to forced oxidation at 120° C. Oxidation was done by passing a dry air current (˜20 I/h) through an aliquot of the sample (4 ml) placed in a reactor heated to 120° C. using a Metrohm-Herisau A. G Rancimat apparatus.
The solutions of all the compounds were prepared in refined oil. A total of 5 mg of II were dissolved in 5 g of refined oil, and finally 0.5 g of this solution were dissolved in. 5 g of refined oil. Similarly, solutions III and VIII were prepared in refined oil. Aliquots of 0.3 ml were collected at different times for each solution and were stored at −20° C. […] After introducing the sample, 6 ml of hexane, 6 ml of hexane/ethyl acetate (9:1) and 10 ml of methanol were passed through it, and then the methanolic fraction was concentrated to 1 ml volume. […] Once again, the methanolic phase was concentrated to 1 ml volume for analysis.

[2] = Absorption of hydroxytyrosol and derivatives administered orally in mice (hydroxytyrosol in plasma); conditions: oral, oily solution, equivalent amounts (10 mg II, 13 mg III, 70 mg IX)
From the text: Plasma was isolated from each blood sample by extraction with ethyl acetate and analysed by gas chromatography-mass spectometry.

[3] = Absorption of hydroxytyrosol administered orally in human volunteers; format: in vivo; conditions: oral
Description: Pure hydroxytyrosol was obtained from olive leaves using standard extraction procedures compatible with the consumption of food products.
A 2.5 mg dose of hydroxytyrosol was administered per kg weight to 5 fasting healthy volunteers aged from 22–30 years who had not taken olive oil in their diet for at least two days before the study. Hydroxytyrosol dissolved in water was administered orally and afterwards blood samples were obtained at 0, 10, 20, 30, 60, 120 minutes. The plasma level of hydroxytyrosol and derived metabolites were determined by gas chromatography-mass spectometry using anthracene and napthol as internal standards.

time bioavailable after administration [3] | time of return of hydroxytyrosol plasma level to values similar to initial ones ([3]; 2.5 mg per kg weight in water) | time of maximum plasma level of hydroxytyrosol after administration ([3]; 2.5 mg per kg weight in water, fasting) | remaining amount of compound during forced oxidation ([1]; 120° C., dry air current, after 10 hours, RP-HPLC) | SMILES | degradation state during forced oxidation ([1]; 120° C., after 10 hours) | stability against oxidation compared with hydroxytyrosol ([1]; forced oxidation at 120° C.) | Hydroxytyrosol in plasma, 15 min. ([2]; 15 min) | Hydroxytyrosol in plasma, 60 min. ([2]; 60 min)
– | – | – | – | CC(=O)OCCc1ccc(O)c(O)c1 [III, 2-(3,4-dihydroxyphenyl) ethyl acetate] | completely degraded | takes longer to degrade than hydroxytyrosol (II) | 0.68 mg/L | 0.06 mg/L
at least 30 minutes | 30 min | 10 min | – | OCCc1ccc(O)c(O)c1 [II, 2-(3,4-dihydroxyphenyl) ethanol] | completely degraded | – | – | –
– | – | – | 50% | CCCCCCCCCCCCCCCCCCOc1ccc(CCO)cc1O [Compound VII, 2-(4-stearyloxy-3-hydroxyphenyl) ethanol] | – | – | – | –
